The experiment has as its target T1, purified recombinant human p38 alpha MAPK (Homo sapiens, UniProt Q16539).
T1 construct: purchased Millipore, USA
Briefly: Inhibition of p38 alpha MAPK activity, TR-FRET kinase assay. Type of experiment: biochemical. To be noted: Concentration 1 μM; read-out: P38α Inhibition. The method, then:
Inhibition of p38 Alpha MAPK Activity: Time-Resolved Fluorescence Resonance Energy Transfer Kinase Standard Assay (TR-FRET Assay)
Compounds of present invention at various concentrations were premixed with DMSO. The experiment was initiated by mixing 0.5%-1.0% DMSO as vehicle/compounds with purified recombinant human p38 alpha MAPK (Millipore, USA) in the wells and 15 min incubation at room temperature. Thereafter, 30 nM of Biotinylated GST-ATF2 (Activation transcription Factor2) and 100 μM of ATP were added in to the wells containing reaction mixture, followed by reincubation for 60 minutes at RT. Reaction was terminated by addition of 10 mM of EDTA and detection reagent containing anti-phosphotheronine ATF2 antibody (PerkinElmer®, USA) labeled with europium chelate and APC (Allophycocyanin) labeled streptavidin, into the reaction mixture which was further incubated for 60 minutes at room temperature. The degree of phosphorylation of the substrate (GST-ATF2) was measured using Envision multimode reader (PerkinElmer®). Percentage inhibition of p38 kinase activity was calculated by determining ratio of specific europium 665 nm energy transfer signal to reference 615 nm signal.
In general terms: TR-FRET usually uses a lanthanide donor and a delayed reading to cut background.

In general, inhibition refers to the drop in the measured response relative to a control, in per cent.

T1 sequence (Q16539 whole entry): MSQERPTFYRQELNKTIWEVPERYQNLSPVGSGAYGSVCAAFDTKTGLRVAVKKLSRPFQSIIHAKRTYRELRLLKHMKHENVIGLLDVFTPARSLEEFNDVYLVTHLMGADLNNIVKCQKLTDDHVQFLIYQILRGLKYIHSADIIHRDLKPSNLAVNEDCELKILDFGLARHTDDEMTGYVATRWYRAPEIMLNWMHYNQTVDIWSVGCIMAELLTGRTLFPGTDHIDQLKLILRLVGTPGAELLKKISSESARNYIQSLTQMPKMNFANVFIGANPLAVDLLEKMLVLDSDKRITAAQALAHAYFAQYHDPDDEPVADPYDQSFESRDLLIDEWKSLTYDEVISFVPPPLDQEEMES

With `Cc1ccc(-n2nc(C(C)(C)C)cc2NC(=O)Nc2ccc(OCC(=O)N3CCn4c(nnc4C(F)(F)F)C3)c3c2CCC3)cc1` [Compound 1, 1-[3-tert-butyl-1-(4-methylphenyl)-1H-pyrazol-5-yl]-3-(7-{2-oxo-2-[3-(trifluoromethyl)-5,6-dihydro[1,2,4]triazolo[4,3-a]pyrazin-7(8H)-yl]ethoxy}-2,3-dihydro-1H-inden-4-yl)urea], the inhibition at 1 µM lay within 80 to 100%.

In the case of `CC(C)(C)c1ccc(-n2nc(C(C)(C)C)cc2NC(=O)Nc2ccc(OCC(=O)N3CCn4c(nnc4C(F)(F)F)C3)c3c2CCC3)cc1` [Compound 2, 1-[3-tert-butyl-1-(4-tert-butylphenyl)-1H-pyrazol-5-yl]-3-(7-{2-oxo-2-[3-(trifluoromethyl)-5,6-dihydro[1,2,4]triazolo[4,3-a]pyrazin-7(8H)-yl]ethoxy}-2,3-dihydro-1H-inden-4-yl)urea], the inhibition at 1 µM is 20 to 40%.

For the molecule `CC(C)(C)c1cc(NC(=O)Nc2ccc(OCC(=O)N3CCn4c(nnc4C(F)(F)F)C3)c3c2CCC3)n(-c2ccc(C3CCCCC3)cc2)n1` [Compound 3, 1-[3-tert-butyl-1-(4-cyclohexylphenyl)-1H-pyrazol-5-yl]-3-(7-{2-oxo-2-[3-(trifluoromethyl)-5,6-dihydro[1,2,4]triazolo[4,3-a]pyrazin-7(8H)-yl]ethoxy}-2,3-dihydro-1H-inden-4-yl)urea], the inhibition at 1 µM was 20 to 40%.

`CC(C)(C)c1cc(NC(=O)Nc2ccc(OCC(=O)N3CCn4c(nnc4C(F)(F)F)C3)c3c2CCC3)n(-c2ccccc2)n1` [Compound 4, 1-(3-tert-butyl-1-phenyl-1H-pyrazol-5-yl)-3-(7-{2-oxo-2-[3-(trifluoromethyl)-5,6-dihydro[1,2,4]triazolo[4,3-a]pyrazin-7(8H)-yl]ethoxy}-2,3-dihydro-1H-inden-4-yl)urea]: the inhibition at 1 µM fell in the range of 60 to 80%.

For `COc1ccccc1-c1nnc2n1CCN(C(=O)COc1ccc(NC(=O)Nc3cc(C(C)(C)C)nn3-c3ccccc3)c3c1CCC3)C2` [Compound 5, 1-(3-tert-butyl-1-phenyl-1H-pyrazol-5-yl)-3-(7-{2-[3-(2-methoxyphenyl)-5,6-dihydro[1,2,4]triazolo[4,3-a]pyrazin-7(8H)-yl]-2-oxoethoxy}-2,3-dihydro-1H-inden-4-yl)urea], the inhibition at 1 µM fell in the range of 80 to 100%.

Consider `Cc1ccc(-n2nc(C(C)(C)C)cc2NC(=O)Nc2ccc(OCCN3CCN(CCO)C(=O)C3)c3c2CCC3)cc1` [Compound 6, 1-[3-tert-butyl-1-(4-methylphenyl)-1H-pyrazol-5-yl]-3-(7-{2-[4-(2-hydroxyethyl)-3-oxopiperazin-1-yl]ethoxy}-2,3-dihydro-1H-inden-4-yl)urea], for which the inhibition at 1 µM was in the range of 80 to 100%.

With `CSc1ccccc1-c1nnc2n1CCN(C(=O)COc1ccc(NC(=O)Nc3cc(C(C)(C)C)nn3-c3ccccc3)c3c1CCC3)C2` [Compound 7, 1-(3-tert-butyl-1-phenyl-1H-pyrazol-5-yl)-3-[7-(2-{3-[2-(methylsulfanyl)phenyl]-5,6-dihydro[1,2,4]triazolo[4,3-a]pyrazin-7(8H)-yl}-2-oxoethoxy)-2,3-dihydro-1H-inden-4-yl]urea], the inhibition at 1 µM is 80 to 100%.

With `COc1ccccc1-c1nnc2n1CCN(C(=O)COc1ccc(NC(=O)Nc3cc(C(C)(C)C)nn3-c3ccc(O)c(Cl)c3)c3c1CCC3)C2` [Compound 8, 1-[3-tert-butyl-1-(3-chloro-4-hydroxyphenyl)-1H-pyrazol-5-yl]-3-(7-{2-[3-(2-methoxyphenyl)-5,6-dihydro[1,2,4]triazolo[4,3-a]pyrazin-7(8H)-yl]-2-oxoethoxy}-2,3-dihydro-1H-inden-4-yl)urea], the inhibition at 1 µM fell in the range of 80 to 100%.

As for `CSc1ccccc1-c1nnc2n1CCN(C(=O)COc1ccc(NC(=O)Nc3cc(C(C)(C)C)nn3-c3ccc(O)c(Cl)c3)c3c1CCC3)C2` [Compound 9, 1-[3-tert-butyl-1-(3-chloro-4-hydroxyphenyl)-1H-pyrazol-5-yl]-3-[7-(2-{3-[2-(methylsulfanyl)phenyl]-5,6-dihydro[1,2,4]triazolo[4,3-a]pyrazin-7(8H)-yl}-2-oxoethoxy)-2,3-dihydro-1H-inden-4-yl]urea], the inhibition at 1 µM is 80 to 100%.
